# Reference: patent publication US10463630B2, “Interaction of methylated LSD1 and CHD1, a compound inhibiting this interaction for use in therapy, and a screening method for such a compound” (Albert-Ludwigs-Universität Freiburg, priority 2015, dated 2019)
# Where a chain is given by its changes, count along the chain named.
# Experiments:
# LAPC4 cells [1] = test: Expression of androgen-regulated genes (quantitative RT-PCR); assay type: cell-based; conditions: 1×10^−5 M Bix-01294, FIG. 3k
# LNCaP cells [2] = test: as above; assay type: cell-based, human; conditions: 1×10^−5 M Bix-01294, FIG. 3j
# LNCaP cells [3] = test: Chromatin immunoprecipitation (ChIP) at AREs of TMPRSS2 and KLK3 enhancers; assay type: cell-based, human; conditions: for chromatin occupancy of G9A: presence or absence of DHT and Bix-01294
# Protocol: ChIP experiments were performed essentially as previously described^10. LNCaP and LAPC4 cells were cultured for 210 min in the absence or presence of 1×10^-7 M DHT as indicated. Three days before harvesting, cells were transfected with siRNA against LSD110, G9A20, or CHD121 that were previously described and validated using Dharmafect2 (Thermo Scientific) following the manufacturer's instructions. Immunoprecipitation was performed with specific antibodies (α-AR (N-20), #sc-816, lot A0207, Santa Cruz), α-LSD1 (#20752, Schuele Laboratory), α-LSD1 K114me2 (#4871, Schuele Laboratory), α-CHD1 (#A301-218A, lot A301-218A-1, Bethyl Laboratories), α-G9A (#ab40542, lot GR170862-1, Abcam) on protein A-Sepharose 4B (GE-Healthcare). For PCR, 2 μl out of 70 μl DNA extract were used. Primer sequences were as follows: TMPRSS2 enhancer (−13782/−13866) 5′-[…]-3′ (SEQ ID NO:1) and 5′-[…]-3′ (SEQ ID NO:2); KLK3 enhancer (−3980/−4048) 5′-[…]-3′ (SEQ ID NO:3) and 5′-[…]-3′ (SEQ ID NO:4); control (chr6:151953789-151953927) 5′-[…]-3′ (SEQ ID NO:5) and 5′-[…]-3′ (SEQ ID NO:6).
# LNCaP cells were cultured and transfected as described^10.
# LNCaP cells [4] = test system: LNCaP cells
# Protocol: LNCaP cells were grown for 72 hours in medium supplemented with 10% double-stripped FCS, treated for 210 min with or without DHT 10^−7 M, washed in PBS, and trypsinized 2 min at 37° C. After washing, cells were resuspended in PBS, filtered through a 40 μm cell strainer and collected in an ice cold 2% formaldehyde solution. After 15 min incubation at 4° C., fixation was stopped by adding glycine and cells were pelleted. After washing, cells were resuspended in nuclear isolation buffer (10 mM HEPES-KOH pH 7.9, 1.5 mM MgCl2, 10 mM KCl, 0.5 mM DTT, Complete protease inhibitor cocktail, Roche), allowed to swell on ice for 10 min, vortexed for 10 seconds at low speed, and pelleted. Isolated nuclei were resuspended in NEB restriction buffer, SDS was added to a final concentration of 0.5%, and nuclei were incubated for 1 h at 37° C. while shaking. Upon addition of Triton X-100, samples were incubated for 1 h at 37° C. to sequester SDS. 50 μl of the sample were taken and used as an undigested control. 600 U restriction enzyme were added and samples were incubated overnight at 37° C. while shaking. 40 μl 20% SDS solution was added and incubated for 20 min at 65° C. to inactivate the restriction enzyme. […] Purified DNA samples were analyzed on a Roche LightCycler®480 by TaqMan-based qPCR. […] To verify Enhancer-Breakpoint PCR product, samples were analyzed on a 2% agarose gel and sequenced.
# LAPC4 cells [5] = test: Chromosome conformation capture (3C), TMPRSS2 enhancer-breakpoint loop; assay type: cell-based; conditions: DHT, Bix-01294, FIG. 4b
# Protocol: LNCaP cells were grown for 72 hours in medium supplemented with 10% double-stripped FCS, treated for 210 min with or without DHT 10^−7 M, washed in PBS, and trypsinized 2 min at 37° C. After washing, cells were resuspended in PBS, filtered through a 40 μm cell strainer and collected in an ice cold 2% formaldehyde solution. After 15 min incubation at 4° C., fixation was stopped by adding glycine and cells were pelleted. After washing, cells were resuspended in nuclear isolation buffer (10 mM HEPES-KOH pH 7.9, 1.5 mM MgCl2, 10 mM KCl, 0.5 mM DTT, Complete protease inhibitor cocktail, Roche), allowed to swell on ice for 10 min, vortexed for 10 seconds at low speed, and pelleted. Isolated nuclei were resuspended in NEB restriction buffer, SDS was added to a final concentration of 0.5%, and nuclei were incubated for 1 h at 37° C. while shaking. Upon addition of Triton X-100, samples were incubated for 1 h at 37° C. to sequester SDS. 50 μl of the sample were taken and used as an undigested control. 600 U restriction enzyme were added and samples were incubated overnight at 37° C. while shaking. 40 μl 20% SDS solution was added and incubated for 20 min at 65° C. to inactivate the restriction enzyme. […] Purified DNA samples were analyzed on a Roche LightCycler®480 by TaqMan-based qPCR. […] To verify Enhancer-Breakpoint PCR product, samples were analyzed on a 2% agarose gel and sequenced. […]
# LNCaP cells [6] = conditions: DHT 10^−6 M, 3 days, FIG. 4g
# Protocol: (§1) LNCaP cells were cultured and transfected as described^10. […] For FISH and analysis of TMPRSS2-ERG expression (FIG. 4f,g) cells were transfected with siRNAs height and five days before harvesting; DHT 10^−6 M was added to the cells as indicated 3 days before harvesting. […] Cells were cultivated for 3 days (FIG. 4f, g) with DHT 10^−6 M as indicated.
# To determine TMPRSS2-ERG fusion status in LNCaP cells, a FISH break-apart assay was performed as described previously^41. The FISH probe consists of two BAC clones spanning the centromeric and telomeric region of the ERG locus on chromosome 21q22.2: RP11-24A11 labelled with biotin-14-dCTP (red) and RP11-137J13 labelled with digoxigenin-dUTP (green). After harvesting, LNCaP cells were incubated with 0.075 M KCl at 37° C. for 15 min and fixed on slides (acetic acid/methanol 1:3). Slides were pre-treated with 2×SSC at 37° C. for 60 min, digested with 1:25 Digest-A11 III at 37° C. for 6 min and dehydrated in an ascending ethanol series. The probes were denatured at 73° C. for 5 min and subsequently co-denaturized with the cells (85° C., 4 min). Hybridization of the two probes was performed at 37° C. overnight. […] Finally slides were counterstained with DAPI and mounted and independently evaluated by two persons.
# LNCaP cells [7] = conditions: DHT 10^−6 M, 3 days, FIG. 4f
# Protocol: Expression analysis of TMPRSS2-ERG (FIG. 4f) was done essentially as previously described. […] HPRT was used for normalization.
# as §1
# CHD1 D425A = biological target: T1, CHD1 D425A (Homo sapiens, UniProt O14646, D425A); test: ITC with CHD1 D425A mutant; assay type: binding; conditions: data not shown
# T1 construct: titration of LSD1aa104-127 K114me0, 1, 2, and 3 peptides to CHD1aa270-443; made in house; E. coli likely, inferred from the pET15b vector of the wild-type fragment
# T1 sequence (O14646 270-443 D425A): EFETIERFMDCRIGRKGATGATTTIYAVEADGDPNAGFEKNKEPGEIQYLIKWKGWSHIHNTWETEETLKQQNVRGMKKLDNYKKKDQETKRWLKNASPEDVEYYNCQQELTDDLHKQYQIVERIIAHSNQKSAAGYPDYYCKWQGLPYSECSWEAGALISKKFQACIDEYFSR
# From the text: Amino acid residues 110-116 of the LSD1 peptide were modelled according to the electron density (FIG. 2c). […] This interaction involves residues Y295, W322, W325 from chromodomain 1 and D408 and D425 from chromodomain 2 (FIG. 2b and FIG. 5a). The methylammonium group of LSD1 K114 and side chains of W322 and W325 of CHD1 form cation-π interactions. […] It was therefore hypothesized that the R113-D425 interaction may be a discriminating feature of CHD1 binding either LSD1 K114me2 or H3K4me3 peptide and that the corresponding surface could be exploited for the design of inhibitors specifically interfering with LSD1 K114me2 but not H3K4me3 interaction (see FIG. 5c). […] Next, it was tested whether in vivo the interaction of CHD1 with LSD1 depends on LSD1 methylation. In the presence of G9A, endogenous CHD1 only coimmunoprecipitated with methylated Flag-LSD1, but not with Flag-LSD1 K114A (FIG. 2d). To investigate whether CHD1 and LSD1 K114me2 are present in the same protein complex, LNCaP cell extracts were subjected to sucrose gradient centrifugation. […] Furthermore, endogenously expressed CHD1 and LSD1 K114me2 coimmunoprecipitated with G9A from LNCaP cell extracts (FIG. 2f). Together, these observations identify CHD1 as a LSD1 K114me2 reader.
# ITC experiments were performed at 25° C. with a MicroCal VP-ITC microcalorimeter (GE Healthcare). […]
# CHD1aa270-443 = biological target: T2, CHD1aa270-443 (Homo sapiens, UniProt O14646); test: Isothermal titration calorimetry (ITC) of peptides titrated to CHD1; assay type: binding; conditions: FIG. 2a
# T2 construct: titration of LSD1aa104-127 K114me0, 1, 2, and 3 peptides to CHD1aa270-443; made in house; E. coli likely, inferred from the pET15b vector
# T2 sequence (O14646 270-443): T1 sequence (O14646 270-443 D425A) with A156D
# Protocol: ITC experiments were performed at 25° C. with a MicroCal VP-ITC microcalorimeter (GE Healthcare). Experiments were performed by injecting 12 μl of peptide (1.5 mM) into the sample cell containing 100 μM CHD1 in 20 mM BTP pH 8, 75 mM NaCl. A total of 24 injections were performed with a spacing of 240 s and a reference power of […]. Automated baseline assignment and peak integration were performed with NITPIC version 1.0.1.^26. Isotherms were plotted, with a single-site binding model, using SEDPHAT version 10.58d^26. Isotherms were subsequently validated by one dimensional error surface projections in SEDFIT^27.
# [8] = biological target: T3, CHD1 double chromodomain (GST-CHD1 Chromo 1/2) (Homo sapiens, UniProt O14646); test: Protein profiling on protein-domain microarrays with LSD1 peptides; assay type: binding; conditions: GST-fusion proteins
# T3 sequence (O14646 268-443 limits assumed): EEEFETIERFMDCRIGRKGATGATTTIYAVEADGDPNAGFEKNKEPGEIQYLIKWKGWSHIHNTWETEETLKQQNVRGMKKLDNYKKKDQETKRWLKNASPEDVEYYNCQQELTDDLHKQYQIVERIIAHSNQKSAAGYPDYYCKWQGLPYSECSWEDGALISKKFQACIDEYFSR
# Protocol: To identify potential LSD1 K114me2 methyl-lysine reader proteins, protein profiling was performed on protein-domain microarrays using un- and dimethylated LSD1 peptides LSD1aa104-127 and LSD1aa104-127 K114me2, respectively (see also ref.^14). In this profiling assay, several GST-fusion proteins including CHD1 fused to GST were used. Other GST-fusions that were used were e.g. PhD-domain proteins (BPTF, ING2 or PHF2), BROMO-domain proteins (GCN5, TAF1-D1 or TAF1-D2), or BRCT-proteins (BRCA1, 53BP1 or Crb2).
compound,measurement,setting,value
COc1cc2nc(N3CCCN(C)CC3)nc(NC3CCN(Cc4ccccc4)CC3)c2cc1OC [Bix-01294],"DHT-induced expression of TMPRSS2, KLK3, PRDM4, ELK4, GREB1, IGF1R, FKBP5, or EGFR",LAPC4 cells [1],greatly reduced
same,"DHT-induced expression of TMPRSS2, KLK3, PRDM4, ELK4, GREB1, IGF1R, FKBP5, or EGFR",LNCaP cells [2],greatly reduced
same,chromatin occupancy of G9A,LNCaP cells [3]; ChIP,not altered
same,androgen-induced methylation of LSD1 and androgen-induced recruitment of CHD1 and AR,"LNCaP cells [3]; DHT, 1×10^−5 M Bix-01294, ChIP, FIG. 3g",blocked
same,androgen-dependent TMPRSS2 enhancer-breakpoint loop formation,"LNCaP cells [4]; DHT, Bix-01294, FIG. 4a",blocked this loop formation
same,androgen-dependent TMPRSS2 enhancer-breakpoint loop formation,LAPC4 cells [5],blocked this loop formation
"C[C@]12CCC(=O)C[C@@H]1CC[C@@H]1[C@@H]2CC[C@]2(C)[C@@H](O)CC[C@@H]12 [DHT, dihydrotestosterone]",ERG rearrangements by FISH,LNCaP cells [6],induced ERG rearrangements
same,TMPRSS2-ERG transcript,LNCaP cells [7],led to the production of TMPRSS2-ERG transcript
same,chromatin occupancy of G9A,LNCaP cells [3]; ChIP,not altered
same,LSD1 K114me2 levels and CHD1 and AR occupancy of the TMPRSS2 and KLK3 genes,"LNCaP cells [3]; DHT 10^−7 M, 210 min, ChIP",elevated LSD1 K114me2 levels accompanied by increased CHD1 and AR occupancy
same,TMPRSS2 enhancer-breakpoint interactions,"LNCaP cells [4]; DHT 10^−7 M, 210 min, 3C",enhancer-breakpoint interactions upon treatment with DHT was observed
H3K4me3 peptide: histone 3 peptide modified at lysine residue 4 by three methyl-groups,effect of D425A mutation in CHD1 on peptide binding,CHD1 D425A,only mildly affected
Unmethylated H3 peptide: unmethylated histone H3 peptide,binding to GST-CHD1 Chromo 1/2,CHD1aa270-443,did not bind
Unmethylated LSD1: unmethylated LSD1 peptide LSD1aa104-127 (TPEGRRTSRRKRAKVEYREMDESL),binding to GST-CHD1 Chromo 1/2,CHD1aa270-443,did not bind
same,interaction with CHD1 double chromodomain on microarray,[8],not
